These results are taken from patent publication US4229435A, “Preparation of blood fraction” (priority 1978, dated 1980).

Holding throughout (type): biochemical
What all share (conditions): no reducing agent

The target in one test is T1, F II (Homo sapiens, UniProt P00734).
T1 construct: from tissue; host or cells: human citrated blood plasma
The test can be described thus: Coagulation factor II activity in plasma after reducing agent + iodoacetic acid. The method, then: (§1) Human blood with anti-coagulating agent (9 parts blood+1 part 3.8% trisodium citrate) is centrifuged and the following tests with plasma were carried out:
(§2) The plasma is divided into 8 ml portions, which are preheated at 37° C. for 5 min. DTT is added in different concentrations, see table 1 below, and is incubated for 5 min. at 37° C. Then iodoacetic acid, 3 mol per mol DTT, is added, and incubation takes place for 15 min. at 37° C. The plasma samples are distributed in portions of about 0.2 ml and are immediately frozen at -70° C. Testing of different coagulation factors is made in known manner.
(§3) The plasma is divided into 8 ml portions, which are preheated at 37° C. for 5 min. DTE is added in different concentrations (see table 2), and is incubated for 5 minutes at 37° C. Then, iodoacetic acid (3 mol per mol DTE) is added and incubation is carried out for 15 minutes at 37° C. The plasma samples are distributed in portions of about 0.2 ml and are immediately frozen at -70° C. Testing of different coagulation factors is made in a manner known per se.
(§4) The plasma is divided into 8 ml portions, which are preheated at 37° C. for 5 minutes. Lipoic acid is added in different concentrations (see table 3), and is incubated for 5 minutes at 37° C. Then, iodoacetic acid (3 mol per mol lipoic acid) is added and incubation is carried out for 15 minutes at 37° C. The plasma samples are distributed in portions of about 0.2 ml and are immediately frozen at -70° C. Testing of different coagulation factors is made in a manner known per se.
(§5) The plasma is divided into 8 ml portions, which are preheated at 37° C. for 5 minutes. Mercaptoethanol is added in different concentrations (see table 4), and is incubated for 5 minutes at 37° C. Then, iodoacetic acid (3 mol per mol mercaptoethanol) is added and incubation is carried out for 15 minutes at 37° C. The plasma samples are distributed in portions of about 0.2 ml and are immediately frozen at -70° C. Testing of different coagulation factors is made in a manner known per se.
(§6) The plasma is divided into 8 ml portions, which are preheated at 37° C. for 5 minutes. Potassium borohydride is added in different concentrations (see table 5, and is incubated for 5 minutes at 37° C. Then, iodoacetic acid (3 mol per mol potassium borohydride) is added and incubation is carried out for 15 minutes at 37° C. The plasma samples are distributed in portions of about 0.2 ml and are immediately frozen at -70° C. Testing of different coagulation factors is made in a manner known per se.

The next test concerns the target T2, F X (Homo sapiens, UniProt P00742).
T2 construct: from tissue; host or cells: human citrated blood plasma
As to the kind of experiment: Coagulation factor X activity in plasma after reducing agent + iodoacetic acid. The method, then: as §1, §2, §3, §4, §5, §6

Another test addresses T3, F V (Homo sapiens, UniProt P12259).
T3 construct: from tissue; host or cells: human citrated blood plasma
The test can be described thus: Coagulation factor V activity in plasma after reducing agent + iodoacetic acid. The method, then: as §1, §2, §3, §4, §5, §6

The mark [1] stands for this setting: Table 1 B: control plasma + iodoacetic acid, same amount as in F.
Where [2] appears, read: Table 2 B: control plasma + iodoacetic acid, same amount as in E.
The mark [3] stands for this setting: Table 3 B: control plasma + iodoacetic acid, same amount as in E.
Where [4] appears, read: Table 4 B: control plasma + iodoacetic acid, same amount as in D.
The mark [5] stands for this setting: Table 5 B: control plasma + iodoacetic acid, same amount as in D.

T3 sequence (P12259 29-2224): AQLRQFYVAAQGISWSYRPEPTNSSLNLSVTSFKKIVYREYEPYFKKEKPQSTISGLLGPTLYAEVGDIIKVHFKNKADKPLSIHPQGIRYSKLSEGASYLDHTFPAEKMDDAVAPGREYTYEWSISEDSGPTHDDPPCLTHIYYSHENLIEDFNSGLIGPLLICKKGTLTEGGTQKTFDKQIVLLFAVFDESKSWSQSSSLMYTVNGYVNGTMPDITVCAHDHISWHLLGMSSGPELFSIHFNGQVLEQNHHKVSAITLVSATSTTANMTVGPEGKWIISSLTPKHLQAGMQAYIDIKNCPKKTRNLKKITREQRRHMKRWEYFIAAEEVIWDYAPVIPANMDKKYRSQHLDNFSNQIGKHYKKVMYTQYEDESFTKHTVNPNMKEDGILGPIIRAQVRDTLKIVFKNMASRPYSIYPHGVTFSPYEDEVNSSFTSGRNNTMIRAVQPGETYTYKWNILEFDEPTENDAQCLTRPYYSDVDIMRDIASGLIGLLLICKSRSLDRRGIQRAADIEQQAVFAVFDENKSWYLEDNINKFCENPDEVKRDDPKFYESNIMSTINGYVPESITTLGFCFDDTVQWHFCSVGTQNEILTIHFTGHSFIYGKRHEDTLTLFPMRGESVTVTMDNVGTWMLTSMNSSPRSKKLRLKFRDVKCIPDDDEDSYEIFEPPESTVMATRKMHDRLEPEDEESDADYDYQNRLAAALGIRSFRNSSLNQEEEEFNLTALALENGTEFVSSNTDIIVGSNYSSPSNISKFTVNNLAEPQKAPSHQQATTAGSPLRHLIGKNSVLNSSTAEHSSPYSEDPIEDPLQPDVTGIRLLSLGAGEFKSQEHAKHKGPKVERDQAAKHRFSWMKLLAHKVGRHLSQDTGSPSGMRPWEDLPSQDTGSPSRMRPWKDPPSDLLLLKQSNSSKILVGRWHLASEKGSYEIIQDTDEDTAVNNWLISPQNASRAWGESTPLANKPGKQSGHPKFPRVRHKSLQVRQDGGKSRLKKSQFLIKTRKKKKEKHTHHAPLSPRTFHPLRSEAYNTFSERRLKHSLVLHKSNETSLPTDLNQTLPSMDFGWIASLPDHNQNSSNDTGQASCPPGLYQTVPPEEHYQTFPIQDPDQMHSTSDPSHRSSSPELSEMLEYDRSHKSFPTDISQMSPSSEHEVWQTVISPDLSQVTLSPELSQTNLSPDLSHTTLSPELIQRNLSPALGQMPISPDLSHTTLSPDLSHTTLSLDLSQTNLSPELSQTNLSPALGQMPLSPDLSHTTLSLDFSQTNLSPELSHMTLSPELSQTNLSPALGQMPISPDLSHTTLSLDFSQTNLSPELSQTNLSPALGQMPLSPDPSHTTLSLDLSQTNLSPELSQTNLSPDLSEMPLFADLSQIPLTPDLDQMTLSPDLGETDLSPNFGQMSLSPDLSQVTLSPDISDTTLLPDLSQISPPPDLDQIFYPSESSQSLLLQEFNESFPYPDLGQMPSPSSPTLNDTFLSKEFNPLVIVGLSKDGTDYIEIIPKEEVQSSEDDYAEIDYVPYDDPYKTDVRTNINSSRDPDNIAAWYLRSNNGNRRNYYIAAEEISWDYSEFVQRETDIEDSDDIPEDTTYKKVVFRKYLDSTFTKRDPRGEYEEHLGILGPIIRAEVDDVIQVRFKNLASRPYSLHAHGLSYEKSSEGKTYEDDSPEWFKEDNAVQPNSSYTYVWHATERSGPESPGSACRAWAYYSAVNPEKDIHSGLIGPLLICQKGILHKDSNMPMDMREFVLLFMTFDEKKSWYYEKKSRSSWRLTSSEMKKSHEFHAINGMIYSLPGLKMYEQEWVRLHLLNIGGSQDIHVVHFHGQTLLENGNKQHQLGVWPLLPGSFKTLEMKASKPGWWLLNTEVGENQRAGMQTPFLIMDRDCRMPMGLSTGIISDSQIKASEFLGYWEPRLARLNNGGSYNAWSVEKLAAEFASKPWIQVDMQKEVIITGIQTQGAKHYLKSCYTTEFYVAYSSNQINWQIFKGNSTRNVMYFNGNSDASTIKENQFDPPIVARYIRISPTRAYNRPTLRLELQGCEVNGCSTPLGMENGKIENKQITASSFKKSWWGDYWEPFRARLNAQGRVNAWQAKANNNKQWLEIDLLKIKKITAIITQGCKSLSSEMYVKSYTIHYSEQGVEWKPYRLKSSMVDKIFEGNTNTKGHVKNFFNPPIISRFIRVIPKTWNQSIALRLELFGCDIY
T2 sequence (P00742 235-488 limits assumed): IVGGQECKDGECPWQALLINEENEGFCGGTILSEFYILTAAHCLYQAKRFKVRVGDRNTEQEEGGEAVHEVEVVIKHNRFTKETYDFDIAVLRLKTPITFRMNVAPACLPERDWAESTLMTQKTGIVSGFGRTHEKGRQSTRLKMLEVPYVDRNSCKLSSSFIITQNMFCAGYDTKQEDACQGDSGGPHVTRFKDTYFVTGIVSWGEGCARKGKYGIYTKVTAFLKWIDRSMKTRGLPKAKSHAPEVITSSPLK
T2 sequence (P00742 41-179 limits assumed): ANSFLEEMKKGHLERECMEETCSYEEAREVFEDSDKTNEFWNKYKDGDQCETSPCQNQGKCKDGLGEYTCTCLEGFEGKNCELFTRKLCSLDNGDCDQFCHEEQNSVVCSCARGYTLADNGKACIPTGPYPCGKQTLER

Turning to `O=C(O)CI` [iodoacetic acid], the “Coagulation factor F II” value on F II (setting [1]) was 99 % of control; at F II (setting [2]), 100 % of control; at F II (setting [3]), 100 % of control; on F II (setting [4]) it was 88 % of control; on F II (setting [5]) it was 88 % of control. In addition, the “Coagulation factor F X” value at F X (setting [1]) is listed as 96 % of control; at F X (setting [2]) it was 87 % of control; on F X (setting [3]), 87 % of control; on F X (setting [4]), 86 % of control; on F X (setting [5]) it was 86 % of control. Moreover, the “Coagulation factor F V” value is 95 % of control on F V (setting [1]); 105 % of control at F V (setting [2]); 105 % of control on F V (setting [3]); 67 % of control at F V (setting [4]); 67 % of control on F V (setting [5]).
